Reference: ChEMBL document CHEMBL2016485, “Design and optimization of quinazoline derivatives as melanin concentrating hormone receptor 1 (MCHR1) antagonists: part 2” (Bioorg Med Chem Lett, 2012)
≈ marks a conversion by molar mass, not a printed value.

Columns and labels:
[1] = AUC at steady state in diet-induced obese C57BL/6J mouse model brain at 30 mg/kg, po bid dosed through micronized suspension for 14 days measured at day 14; format: ADME, organism-based; set-up: dose 30 mg/kg, route oral
[2] = AUC at steady state in diet-induced obese C57BL/6J mouse model plasma at 30 mg/kg, po bid dosed through micronized suspension for 14 days measured at day 14; format: ADME, organism-based; set-up: dose 30 mg/kg, route oral
[3] = Cmax at steady state in diet-induced obese C57BL/6J mouse model plasma at 30 mg/kg, po bid dosed through micronized suspension for 14 days measured at day 14; format: ADME, organism-based; set-up: dose 30 mg/kg, route oral
[4] = Cmax at steady state in diet-induced obese C57BL/6J mouse model brain at 30 mg/kg, po bid dosed through micronized suspension for 14 days measured at day 14; format: ADME, organism-based; set-up: dose 30 mg/kg, route oral
[5] = Cmax in dog at 5 mg/kg, po relative to initial plasma concentration; format: ADME, organism-based, Canis lupus familiaris; set-up: dose 5 mg/kg, route oral
[6] = Cmax in dog at 6 mg/kg, iv relative to initial plasma concentration; format: ADME, organism-based, Canis lupus familiaris; set-up: dose 6 mg/kg, route intravenous
[7] = AUC (0 to 24 hrs) in rat at 30 mg/kg, po; format: ADME, organism-based; set-up: time < 24 hr, dose 30 mg/kg, route oral; settings: plasma
[8] = AUC (0 to 24 hrs) in dog at 5 mg/kg, po; format: ADME, organism-based, Canis lupus familiaris; set-up: time < 24 hr, dose 5 mg/kg, route oral; settings: plasma
[9] = Cmax in beagle dog at 6 mg/kg, iv; format: ADME, organism-based, Canis lupus familiaris; set-up: dose 6 mg/kg, route intravenous; settings: in vivo
[10] = Cmax in rat at 30 mg/kg, po relative to initial plasma concentration; format: ADME, organism-based; set-up: dose 30 mg/kg, route oral
[11] = AUC (0 to 24 hrs) in dog at 6 mg/kg, iv; format: ADME, organism-based, Canis lupus familiaris; set-up: time < 24 hr, dose 6 mg/kg, route intravenous; settings: plasma
[12] = Solubility in fasted state simulated intestinal fluid at pH 6.5 at 0.5 hrs; format: physicochemical
[13] = Cmax at steady state in diet-induced obese C57BL/6J mouse model plasma at 100 mg/kg, po qd dosed through CMC/Tween 80 suspension for 14 days measured at day 14; format: ADME, organism-based; set-up: dose 100 mg/kg, route oral
[14] = Cmax at steady state in diet-induced obese C57BL/6J mouse model brain at 100 mg/kg, po qd dosed through CMC/Tween 80 suspension for 14 days measured at day 14; format: ADME, organism-based; set-up: dose 100 mg/kg, route oral
[15] = AUC at steady state in diet-induced obese C57BL/6J mouse model plasma at 100 mg/kg, po qd dosed through CMC/Tween 80 suspension for 14 days measured at day 14; format: ADME, organism-based; set-up: dose 100 mg/kg, route oral
[16] = AUC (0 to 24 hrs) in mouse at 30 mg/kg, po; format: ADME, organism-based; set-up: time < 24 hr, dose 30 mg/kg, route oral; settings: plasma
[17] = AUC at steady state in diet-induced obese C57BL/6J mouse model brain at 100 mg/kg, po qd dosed through CMC/Tween 80 suspension for 14 days measured at day 14; format: ADME, organism-based; set-up: dose 100 mg/kg, route oral
[18] = Cmax in mouse at 30 mg/kg, po relative to initial plasma concentration; format: ADME, organism-based; set-up: dose 30 mg/kg, route oral

Row | SMILES | AUC at 336 h [1] [µM·h] | AUC at 336 h [2] [µM·h] | Cmax [3] [µM] | Cmax [4] [µM] | AUC(0-t) at 24 h [7] [µM·h] | Cmax [10] [µM] | solubility at 0.5 h [12] [µM] | other results
1 | CS(=O)(=O)O.Cc1nc(N2CCC(O)(C3CC3)CC2)nc2ccc(NC(=O)/C=C/c3ccc(Cl)cc3)cc12 | – | – | – | – | 79.6 | 7.8 | 11.2 | Cmax [5]: 2500 nM; Cmax [6]: 9.9 µM; AUC(0-t) at 24 h [8]: 37.7 µM·h; Cmax [9]: 6.4 µM; AUC(0-t) at 24 h [11]: 43.5 µM·h
2 | Cc1nc(N2CCC(O)(C3CC3)CC2)nc2ccc(NC(=O)/C=C/c3ccc(Cl)cc3)cc12 | – | – | – | – | 26.6 | 2.4 | 1.7 (≈ 0.787 µg/mL) | Cmax [13]: 5.9 µM; Cmax [14]: 2100 nM; AUC at 336 h [15]: 104 µM·h; AUC(0-t) at 24 h [16]: 33.4 µM·h; AUC at 336 h [17]: 30.2 µM·h; Cmax [18]: 2100 nM

Further lines, with some results ahead:

Row | AUC at 336 h [1] [µM·h] | AUC at 336 h [2] [µM·h] | Cmax [3] [µM] | Cmax [4] [µM] | AUC(0-t) at 24 h [7] [µM·h] | Cmax [10] [µM] | solubility at 0.5 h [12] [µM] | SMILES | other results
3 | 67.6 | 284 | 12.7 | 3.7 | – | – | – | Cc1nc(N2CCC(N3CCOC3=O)CC2)nc2ccc(NC(=O)/C=C/c3ccc(OC(F)(F)F)cc3)cc12 | –
4 | 104 | 312 | 16.5 | 6.3 | – | – | – | Cc1nc(N2CCC(N3CCOCC3=O)CC2)nc2ccc(NC(=O)/C=C/c3ccc(OC(F)(F)F)cc3)cc12 | –
5 | 95.1 | 385 | 17.7 | 5.6 | – | – | – | Cc1nc(N2CCC(N3CCCC3=O)CC2)nc2ccc(NC(=O)/C=C/c3ccc(OC(F)(F)F)cc3)cc12 | –
